Results published in patent publication US20030134401A1, “Process for the stereoselective preparation of functionalized vicinal diols” (priority 2001, published 2003).

Tests used:
Eph1 = experiment: Hydrolysis of epoxy nitriles by cell free extract of recombinant E. coli BL21(DE3)[pEph1]; type: biochemical, Rhodotorula glutinis; settings: 50 mM potassium phosphate buffer pH 7.5, 35-37° C., 10 mM epoxide
Method: Cell extracts (from cell suspensions prepared according to examples 9, 10 and 11) were prepared by sonication (5 minutes, duty cycle 30%, output control 3) using a Branson sonifier 250. To separate the cell extracts in a soluble and an insoluble fraction the disrupted cells in KPi-buffer were centrifuged for 10 minutes at 4° C. and 20,000×g. The supernatant, containing the soluble proteins, was called the S-fraction. The pellet, containing the insoluble proteins and cell debris, was resuspended in an equal volume of KPi-buffer and referred to as the P-fraction.
The racemic resolution of the epoxy nitrile was performed with the cell free extracts of E. coli BL21(DE3)[pEph1] containing 48 mg protein/L in an aqueous solution of 50 mM potassium phosphate buffer at pH 7.5, 35-37° C. The starting epoxide concentration used was 10 mM. After 150 minutes the resolution was stopped by short and rapid heating to 80° C. and enantiopure epoxide (>99% ee, GC-analysis) could be obtained with 50% conversion (100% of the theoretical yield). […]

whole cell R. glutinis = experiment: Hydrolysis of epoxy nitriles by whole resting cells of Rhodotorula glutinis; type: cell-based, Rhodotorula glutinis CBS 8761; settings: 50 mM potassium phosphate buffer pH 7.5, 35-37° C., 10 mM epoxide
Method: The racemic resolution of the epoxy nitriles was performed with 24 g/L (dry weight) of whole resting cells of Rhodotorula glutinis CBS 8761 in an aqueous solution of 50 mM potassium phosphate buffer at pH 7.5, 35-37° C. The starting epoxide concentration used was 10 mM. After 150 minutes the resolution was stopped by centrifugation and separation of the supernatant liquid and enantiopure epoxide (>99% ee, GC-analysis) could be obtained with 50% conversion (100% of the theoretical yield).
Determination of reaction and extraction progress as well as enantiomeric excess were performed by gas chromatography (GC) using fused silica cyclodextrin capillary column (FS-CYCLODEX alpha-I/P 50 m length, 0.32 mm ID, Chromatography Service GmbH) on an Hewlett-Packard 6890 gas chromatograph equipped with FID detector and using H2 as carrier gas at 120° C. and 0.6 bar pressure.
Examples 12 and 13 were carried out analogously to examples 8 and 10 using 2-cyano-3,3-dimethyl-oxirane as substrate.

SMILES | activity [U/g (protein)] cell free extract E. coli (Eph1) | activity [U/g (dry weight)] whole cell R. glutinis (whole cell R. glutinis)
CC1(C)OC1C#N (stereo not shown) [2-cyano-3,3-dimethyl-oxirane] | 300 (example 19) U/g (protein) | 3 (example 18) U/g (dry weight)
N#CC1OC12CCCCC2 (racemic) [1-oxa-spiro[2.5]octane-2-carbonitrile] | 3000 (example 16) U/g (protein) | 6 (example 14) U/g (dry weight)
